Results on 23 substances are retold here after US20060079453A1, “Hla binding peptides and their uses” (priority 2002, published 2006).

Read-outs that look alike come from different tables or passages of the source. No end group written: not given here.

Targets include HLA-DR DRB1*1501 (DR15) (Homo sapiens, UniProt P01903+P01911); HLA-DR DRB5*0101 (DR51) (Homo sapiens, UniProt P01903+Q30154); HLA-DR DRB1*1302 (DR13) (Homo sapiens, UniProt P01903+P01911, A100E/A169T/K41T/L162R/M171V/P40S/Q125H/Q178H/Q39Y/Q99D/R42S/S66N/T262R/V115G/W38E/Y61H); HLA-DR DRB1*0401 (DR4) (Homo sapiens, UniProt P01903+P01911, A100K/A169T/F76Y/I96L/K127E/L162R/M171V/N62H/P40V/Q125Y/R42H/S133A/S149N/S66Y/V115G/V209L/W38E); HLA-DR DRB1*0701 (DR7) (Homo sapiens, UniProt P01903+P01911, A100R/A102G/A103Q/D57E/D86V/E43K/F76Y/K127E/L162R/M171V/P40G/Q125H/Q99D/R33Q/R42Y/R54Q/S133A/S66F/T210M/V115G/Y107V/Y59L/Y89S); HLA-DR DRB4*0101 (DR53) (Homo sapiens, UniProt P01903+P13762, G164S); HLA-DR DRB1*0101 (DR1) (Homo sapiens, UniProt P01903+P01911, A100R/D57E/F55L/F60I/F76Y/I96L/L162R/M171V/P40L/Q125E/R42F/V115G/Y59C); HLA-DR DRB1*1101 (DR11) (Homo sapiens, UniProt P01903+P01911, A100R/A169T/A87E/I96F/K41T/L162R/M171V/P40S/Q125H/Q178H/Q39Y/Q99D/R42S/S66Y/T262R/V115G/W38E).

Holding throughout (assay): biochemical
Type in all cases: binding

Sequence of HLA-DR DRB1*1101 (DR11) (P01903 26-254 limits assumed, other chains not shown): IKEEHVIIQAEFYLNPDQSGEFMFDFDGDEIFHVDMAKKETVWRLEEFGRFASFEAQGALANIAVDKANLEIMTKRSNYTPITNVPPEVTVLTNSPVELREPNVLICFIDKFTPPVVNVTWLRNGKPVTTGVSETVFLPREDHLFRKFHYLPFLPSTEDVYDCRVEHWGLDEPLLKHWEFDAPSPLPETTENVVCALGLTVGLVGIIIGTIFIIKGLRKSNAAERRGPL
Sequence of HLA-DR DRB1*1302 (DR13) (P01903 26-254 limits assumed, other chains not shown): as above

As for VYDFVFADLRGVYRD, the IC50 at HLA-DR DRB1*1501 (DR15) (read-out: DRBI *1501) was 855 nM; at HLA-DR DRB5*0101 (DR51) (read-out: DRB5 *0101), more than 51000 nM; at HLA-DR DRB1*1302 (DR13) (read-out: DRBI *1302) it was 79 nM.
As to ENEYATGAVRPFQAA, the IC50 against HLA-DR DRB1*0401 (DR4) (DRB1 *0401) is 281 nM; against HLA-DR DRB1*1501 (DR15) (DRBI *1501), 3010 nM; on HLA-DR DRB1*0701 (DR7) (DRB1 *0701), 4970 nM; against HLA-DR DRB5*0101 (DR51) (DRB5 *0101), more than 10300 nM; on HLA-DR DRB4*0101 (DR53) (DRB4 *0101), 10000 nM; against HLA-DR DRB1*1302 (DR13) (DRBI *1302), 9300 nM. Further, on HLA-DR DRB1*0101 (DR1) (DRB1 *0101), the IC50 is 4440 nM.
Regarding YEEYVRFDSDVGE, the IC50 at HLA-DR DRB1*0401 (DR4) (DRB1 *0401) is 400 nM; against HLA-DR DRB5*0101 (DR51) (DRB5 *0101), not below 200000 nM; on HLA-DR DRB1*1101 (DR11) (DRB1 *1101), not below 200000 nM; at HLA-DR DRB1*0101 (DR1) (DRB1 *0101) it was not below 50000 nM.
Consider ALVRQGLAKVA, for which the IC50 against HLA-DR DRB1*0401 (DR4) (DRB1 *0401) was 190 nM; against HLA-DR DRB5*0101 (DR51) (DRB5 *0101) it was more than 10000 nM; against HLA-DR DRB1*1101 (DR11) (DRB1 *1101), not below 200000 nM.
As for ENPVVHAFKNIVTPR, the results for the IC50 on HLA-DR DRB1*1501 (DR15) (DRBI *1501) and on HLA-DR DRB5*0101 (DR51) (DRB5 *0101) were 4.1 nM and 910 nM, respectively.
As for HFFKNIVTPRTPPY, the IC50 amounted to 460 nM on HLA-DR DRB1*1501 (DR15) (DRBI *1501) and 377 nM on HLA-DR DRB5*0101 (DR51) (DRB5 *0101).
On to ENPVVAFFKNIVTPR, for which the IC50 against HLA-DR DRB1*1501 (DR15) (DRBI *1501) was found to be 2.8 nM; at HLA-DR DRB5*0101 (DR51) (DRB5 *0101) it was 302 nM.
As for VRTLQQLLMGTCTIV, the IC50 on HLA-DR DRB1*1501 (DR15) (read-out: DRBI *1501) was 1830 nM; on HLA-DR DRB5*0101 (DR51) (read-out: DRB5 *0101) it was more than 15300 nM; at HLA-DR DRB1*1302 (DR13) (read-out: DRBI *1302) it was 37 nM.
Take CIVYRDCIAYAACHK: the IC50 is 928 nM at HLA-DR DRB1*0401 (DR4) (read-out: DRB1 *0401), more than 14600 nM at HLA-DR DRB1*0701 (DR7) (read-out: DRB1 *0701), 1910 nM on HLA-DR DRB5*0101 (DR51) (read-out: DRB5 *0101) and 35600 nM on HLA-DR DRB1*1101 (DR11) (read-out: DRB1 *1101).
Take NPVVHFFKNIVTPR: the IC50 on HLA-DR DRB1*1501 (DR15) (DRBI *1501) came out at 3.7 nM; against HLA-DR DRB5*0101 (DR51) (DRB5 *0101) it was 1890 nM.
Turning to HFNMLKNKMQSSFFM, the IC50 at HLA-DR DRB1*0401 (DR4) (DRB1 *0401) turned out to be 18 nM; against HLA-DR DRB1*1501 (DR15) (DRBI *1501), 616 nM; against HLA-DR DRB1*0701 (DR7) (DRB1 *0701) it was 3230 nM; against HLA-DR DRB5*0101 (DR51) (DRB5 *0101) it was 60 nM; against HLA-DR DRB4*0101 (DR53) (DRB4 *0101) it was 934 nM; against HLA-DR DRB1*0101 (DR1) (DRB1 *0101), 12 nM.
With EEYVRFDSDVGE, the IC50 on HLA-DR DRB1*0401 (DR4) (DRB1 *0401) is 216 nM; against HLA-DR DRB5*0101 (DR51) (DRB5 *0101), not below 200000 nM; at HLA-DR DRB1*1101 (DR11) (DRB1 *1101), not below 200000 nM; against HLA-DR DRB1*0101 (DR1) (DRB1 *0101), not below 50000 nM.
Consider QKQVQMMIMIKFMGV, for which the IC50 is 363 nM at HLA-DR DRB1*1501 (DR15) (read-out: DRBI *1501), 915 nM at HLA-DR DRB5*0101 (DR51) (read-out: DRB5 *0101) and 5.3 nM on HLA-DR DRB4*0101 (DR53) (read-out: DRB4 *0101).
As for RIVYRDNNPYGVCIM, the IC50 on HLA-DR DRB1*1501 (DR15) (read-out: DRBI *1501) was 821 nM; on HLA-DR DRB5*0101 (DR51) (read-out: DRB5 *0101), 20500 nM; on HLA-DR DRB4*0101 (DR53) (read-out: DRB4 *0101) it was 1400 nM.
Regarding NYELSKKAVIFTPIY [NYELSKXAVIFTPIY], the IC50 at HLA-DR DRB1*1501 (DR15) (DRBI *1501) worked out at 537 nM; against HLA-DR DRB5*0101 (DR51) (DRB5 *0101), 10600 nM; on HLA-DR DRB1*1302 (DR13) (DRBI *1302) it was 410 nM.
MIMIKFMGVIYIMII [MJMIKFMGVIYIMII]: the figures for the IC50 on HLA-DR DRB1*1501 (DR15) (DRBI *1501) and on HLA-DR DRB1*1302 (DR13) (DRBI *1302) were 23600 nM and 102 nM, respectively.
Take SAFLESQSMNKIGDD: the IC50 at HLA-DR DRB1*1501 (DR15) (DRBI *1501) turned out to be 18700 nM; on HLA-DR DRB1*0701 (DR7) (DRB1 *0701), 523 nM; against HLA-DR DRB5*0101 (DR51) (DRB5 *0101), 243 nM; against HLA-DR DRB4*0101 (DR53) (DRB4 *0101), 302 nM; against HLA-DR DRB1*0101 (DR1) (DRB1 *0101), 549 nM.
For EYLILSARDVLAVVS, the IC50 against HLA-DR DRB1*0401 (DR4) was found to be 508 nM; at HLA-DR DRB1*1501 (DR15) it was 2340 nM; at HLA-DR DRB5*0101 (DR51), 4150 nM; at HLA-DR DRB4*0101 (DR53) (DRB4 *0101), 2530 nM; against HLA-DR DRB1*1101 (DR11), 6860 nM.
On to LAHYDVLLSYPNKTA, for which the values for the IC50 at HLA-DR DRB1*1501 (DR15) (read-out: DRBI *1501), at HLA-DR DRB4*0101 (DR53) (read-out: DRB4 *0101) and at HLA-DR DRB1*1101 (DR11) (read-out: DRB1 *1101) were 82 nM, 589 nM and 380 nM, respectively.
For the substance KKNIIALLIIPPKIH, the IC50 on HLA-DR DRB1*1501 (DR15) (read-out: DRBI *1501) amounted to 32 nM; on HLA-DR DRB4*0101 (DR53) (read-out: DRB4 *0101), 8.2 nM.
As for LCNFKKNIIALLHP, the IC50 was 29300 nM at HLA-DR DRB1*1501 (DR15) (read-out: DRBI *1501), more than 42600 nM at HLA-DR DRB5*0101 (DR51) (read-out: DRB5 *0101), 99 nM on HLA-DR DRB4*0101 (DR53) (read-out: DRB4 *0101) and 16 nM on HLA-DR DRB1*1302 (DR13) (read-out: DRBI *1302).
Consider “DPNANPNVDPNANPNVNANPNANPNANP(X4)QKWAAVVVPS”, for which the IC50 is more than 7580 nM at HLA-DR DRB1*1501 (DR15) (read-out: DRBI *1501), more than 2900 nM at HLA-DR DRB5*0101 (DR51) (read-out: DRB5 *0101), more than 72500 nM at HLA-DR DRB4*0101 (DR53) (read-out: DRB4 *0101) and more than 12500 nM at HLA-DR DRB1*1101 (DR11) (read-out: DRB1 *1101).
In the case of KSKFNILSSPLFNNF, the IC50 on HLA-DR DRB1*0401 (DR4) (read-out: DRB1 *0401) worked out at 16 nM; on HLA-DR DRB1*1501 (DR15) (read-out: DRBI *1501) it was 5.9 nM; on HLA-DR DRB1*0701 (DR7) (read-out: DRB1 *0701) it was 65 nM; at HLA-DR DRB5*0101 (DR51) (read-out: DRB5 *0101) it was 32 nM; on HLA-DR DRB1*1302 (DR13) (read-out: DRBI *1302) it was 25 nM; at HLA-DR DRB1*0101 (DR1) (read-out: DRB1 *0101), 0.8 nM.
